Laboratory results as given in patent publication US20080064629A1, “Amphiregulin as a Protective Agent in Acute Hepatic Injury” (priority 2004, published 2008).

Legend:
Assay type in all cases: cell-based
[1] = test system: mouse hepatocytes in primary culture; experiment: Apoptosis induced by actinomycin D and Jo2 antibody in mouse hepatocytes in primary culture; settings: AR 20 nM; PD153035 1 μM, PD98059 10 μM, LY-294002 20 μM; actinomycin D and Jo2
Excerpt: In order to determine whether the in vivo antiapoptotic effects of AR could be mediated by direct action of AR on liver parenchymal cells, the inventors used mouse hepatocytes in primary culture. It has been reported that hepatocytes exposed to Jo-2 antibodies undergo apoptosis effectively in presence of actinomycin D [(5), (6), (33) Ni, R., Tomita, Y., Matsuda, K., Ichiara, A., Ishimura, K., Ogasawara, J., Nagata, S. 1994. Fas-mediated apoptosis in primary cultured mouse hepatocytes. Exp. Cell Res. 215: 332-337]. Hepatocytes were pretreated with different concentrations of AR during […] before addition of actinomycin D and Jo2 antibody. Measurements of apoptosis and related molecular events, were made 18 h later. […] Likewise, they found antiapoptotic protein Bcl-xL to be induced by treatment with AR in mouse hepatocytes treated with Jo2 (FIG. 4B). In order to identify the AR antiapoptotic signaling mechanisms, PI-3K/Akt and ERK1/2 pathways were studied, as they are general mediators of cell survival [(4), (6)]. […] A key signaling molecule implicated in protection against liver damage induced by Fas is STAT3 [(34) Shen, Y., Devgan, G., Darnell, J. E., Bromberg, J. F. 2001. Constitutively activated Stat3 protects fibroblasts from serum withdrawal and UV-induced apoptosis and antagonizes the proapoptotic effects of activated Statl. Proc. Natl. Acad. Sci. USA. 98: 1543-1548. (35) Haga, S., Terui, K., Zhang, H. Q., Enosawa, S., Ogawa, W., Inoue, H., Okuyama, T., Takeda, K., Akira, S., Ogino, T., et al. 2003. Stat3 protects against Fas-induced liver injury by redox-dependent and -independent mechanisms. J. Clin. Invest. 112: 989-998].
(§1) Hepatocytes were isolated from male Wistar rats (150 g) and C57/BL6 mice (20 g) by perfusion with collagenase (Gibco-BRL, Paisley, UK) as described elsewhere [(18), (20)]. Cells (5×10^5 cells per well) were plated onto 6-well plates coated with collagen (type I collagen, Collaborative Biomedical, Bedford, Mass., USA). Cultures were maintained in MEM medium supplemented with 10% fetal calf serum (FCS), non-essential amino acids, glutamine 2 mM and antibiotics (all supplied by Gibco-BRL). After 2 h of incubation, the medium was removed and cells were again cultured in the same medium with 5% FCS. Where applicable, hepatocytes were treated with IL-1β or TNFα from Roche (Mannheim, Germany), HGF or forskolin from Calbiochem (San Diego, Calif., USA), IL6 from RD Systems (Wiesbaden-Nordenstadt, Germany), or PGE2 from Alexis QBiogene (Carlsbad, Calif., USA).
Apoptosis was induced in cultured mouse hepatocytes by treatment with 0.5 μg/ml of Jo2 antibody and 0.05 μg/ml of actinomycin D as described elsewhere (5). Where applicable, the hepatocytes were treated with AR 6 h before the addition of Jo2 antibody and actinomycin D. Apoptosis was estimated by determining soluble histone-DNA complexes using the Cell Death Detection Assay (Roche). ELISA tests for determining cell death were carried out following the manufacturer's instructions. The specific enrichment of mono- and oligonucleosomes released in the cytoplasm (enrichment factor, EF) was calculated as the ratio between the absorbance values of the samples corresponding to treated cells and control cells. […]
Caspase-3 activity in mouse hepatocytes and liver tissue lysates was assessed using the Caspase-3/CPP32 colorimetric assay kit (BioVision, Palo Alto, Calif., USA). […]

rat hepatocytes = experiment: DNA synthesis ([3H]thymidine incorporation) in cultured rat hepatocytes; settings: for reduction of the effects of AR on DNA synthesis: AR 100 nM, PD98059 10 μM, SP600125 20 μM; for effect on DNA synthesis stimulated by AR (in words): AR 100 nM with PD153035 1 μM, LY294002 20 μM, SB202190 25 μM, TGFβ 8 ng/ml
Protocol: For DNA synthesis, rat hepatocytes were plated to a density of 3×10^4 cells/well in 96-well plates coated with collagen in MEM medium supplemented with 10% FCS. Five hours after plating, the medium was changed and cells were maintained in absence of serum for another 20 hours. DNA synthesis was assayed after 30 h of treatment with AR. A pulse of [^3H]thymidine was administered (1 μCi/well)(Amersham Biosciences, Piscataway, N.J., USA) 22 h after the addition of AR. Cells were harvested, and the incorporation of thymidine was determined with a scintillation counter. Evaluations were made of the effect of AR on DNA synthesis in the presence of MEK1 inhibitor, PD98059, PI-3K inhibitor, LY294002, p38 MAPK inhibitor, SB202190, JNK inhibitor, SP600125, and of the EGF-R tyrosine kinase activity inhibitor, PD153035—all supplied by Calbiochem.

[2] = test system: AR gene expression in rat hepatocytes; experiment: AR gene expression in cultured rat hepatocytes (real time PCR); settings: IL-1β 2 ng/ml; PGE2 10 μM; forskolin, hydrogen peroxide, menadione data not shown
Protocol: as §1
Total RNA was extracted using TRI reagent (Sigma). […] of RNA were treated with DNase I (Gibco-BRL) before reverse transcription, for which M-MLV enzyme was used (Gibco-BRL) in the presence of RNase OUT (Gibco-BRL). For each PCR reaction 1/10 of each preparation of cDNA was used. PCR products were subjected to electrophoresis in 2% agarose gels, followed by staining with ethidium bromide and quantification using Molecular Analyst software (Bio-Rad, Hercules, Calif., USA). Data were normalized with respect to β-actin gene expression levels. […] All primers were designed to distinguish between the amplification of genomic DNA and cDNA, and all products were sequenced to confirm specificity. The primers used are described below in Table I: […]
Real time PCR was performed using an iCycler (BioRad) and iQ SYBR Green Supermix (Bio-Rad). In order to monitor the specificity of final PCR products, the latter were analysed by fusion curves and electrophoresis. The amount of each transcript was expressed as n-fold the difference versus expression of the reference gene (β-actin)(2^ΔCt, where ΔCt represents the difference in threshold cycle between target genes and control gene).

Compound | effect on DNA synthesis stimulated by AR (in words) (rat hepatocytes) | AR gene expression [2] | other results
COc1cccc(-c2cc(=O)c3ccccc3o2)c1N [PD98059, reference compound] |  |  | effect of inhibitor on the protection against apoptosis afforded by AR [1]: did not interfere; reduction of the effects of AR on DNA synthesis (rat hepatocytes): 70%
COc1cc2ncnc(Nc3cccc(Br)c3)c2cc1OC [PD153035, reference compound] | completely prevents |  | effect of inhibitor on the protection against apoptosis afforded by AR [1]: protection afforded by AR was lost
CCCCC[C@H](O)/C=C/[C@H]1[C@H](O)CC(=O)[C@@H]1C/C=C\CCCC(=O)O [PGE2, prostaglandin E2] |  | rapid induction | 
Oc1ccc(-c2nc(-c3ccncc3)c(-c3ccc(F)cc3)[nH]2)cc1 [SB202190] | no significant effect |  | 
Oc1c2ccccc2c2c3c(cccc13)N=N2 [SP600125] |  |  | reduction of the effects of AR on DNA synthesis (rat hepatocytes): 70%
OO [hydrogen peroxide] |  | no effect | 
CC1=CC(=O)c2ccccc2C1=O [menadione] |  | no effect | 
IL-1β: cytokine implicated in liver inflammatory and regenerative processes (Roche) |  | stimulate AR gene expression | 
transforming growth factor β [TGFβ] | abrogated |  | 
